Results taken from PMC4917448 (Journal of biomolecular screening, 2016).
“Also recorded” adds a separate entry of the source.

Legend:
[1] = tested on: HDAC I/II; experiment: HDAC-Glo I/II assay in HCT116 cells; assay type: cell-based, human; details: for HDAC-Glo: Efficacy, HCT116 / Efficacy, HDAC-Glo I/II HCT116 assay: maximal response
[2] = tested on: HDAC I/II; experiment: HDAC-Glo I/II assay in human neural stem cells; assay type: cell-based; details: for HDAC-Glo: Efficacy, hNSC: maximal response; for inhibition of HDAC-Glo I/II luminescence signals: hNSCs, Figure 2
[3] = CellTiter-Glo cell viability assay in hNSC; assay type: cell-based, human; details: human, human neural stem cells (hNSC)
[4] = tested on: human neural stem cells; experiment: CellTiter-Glo cell viability assay in hNSC; assay type: cell-based; details: for IC50: Homo sapiens, Neural stem cell, 1 h, read-out: Viability: IC50, hNSC; for Viability: IC50, hNSC: cherry-pick confirmation, 1 hour
[5] = CellTiter-Glo cell viability assay in HCT116; assay type: cell-based, human; details: human, HCT116 cells
[6] = tested on: HCT116 cells; experiment: CellTiter-Glo cell viability assay in HCT116; assay type: cell-based, human; details: for IC50: Homo sapiens, HCT-116, 1 h, read-out: Viability: IC50, HCT116; for Viability: IC50, HCT116: cherry-pick confirmation, 1 hour
[7] = molecular target: HDAC1 (Homo sapiens, UniProt Q13547); experiment: Fluorogenic isoform-specific HDAC assay, HDAC1; assay type: biochemical
Sequence of HDAC1 (Q13547 whole entry, canonical isoform): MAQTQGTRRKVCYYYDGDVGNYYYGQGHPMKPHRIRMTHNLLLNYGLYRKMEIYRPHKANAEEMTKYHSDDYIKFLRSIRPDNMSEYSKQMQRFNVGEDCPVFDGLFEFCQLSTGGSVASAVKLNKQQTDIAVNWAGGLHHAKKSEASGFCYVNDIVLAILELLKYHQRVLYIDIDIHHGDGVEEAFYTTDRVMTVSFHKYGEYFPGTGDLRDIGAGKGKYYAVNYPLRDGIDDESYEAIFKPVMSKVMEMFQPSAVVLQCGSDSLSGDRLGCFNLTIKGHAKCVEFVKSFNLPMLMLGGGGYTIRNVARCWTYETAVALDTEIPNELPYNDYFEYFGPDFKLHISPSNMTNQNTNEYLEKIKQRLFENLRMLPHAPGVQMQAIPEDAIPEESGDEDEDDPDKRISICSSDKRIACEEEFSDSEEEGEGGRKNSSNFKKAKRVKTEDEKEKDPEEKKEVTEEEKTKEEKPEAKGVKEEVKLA

[8] = molecular target: HDAC2 (Homo sapiens, UniProt Q92769); experiment: Fluorogenic isoform-specific HDAC assay, HDAC2; assay type: biochemical
Sequence of HDAC2 (Q92769 whole entry, canonical isoform): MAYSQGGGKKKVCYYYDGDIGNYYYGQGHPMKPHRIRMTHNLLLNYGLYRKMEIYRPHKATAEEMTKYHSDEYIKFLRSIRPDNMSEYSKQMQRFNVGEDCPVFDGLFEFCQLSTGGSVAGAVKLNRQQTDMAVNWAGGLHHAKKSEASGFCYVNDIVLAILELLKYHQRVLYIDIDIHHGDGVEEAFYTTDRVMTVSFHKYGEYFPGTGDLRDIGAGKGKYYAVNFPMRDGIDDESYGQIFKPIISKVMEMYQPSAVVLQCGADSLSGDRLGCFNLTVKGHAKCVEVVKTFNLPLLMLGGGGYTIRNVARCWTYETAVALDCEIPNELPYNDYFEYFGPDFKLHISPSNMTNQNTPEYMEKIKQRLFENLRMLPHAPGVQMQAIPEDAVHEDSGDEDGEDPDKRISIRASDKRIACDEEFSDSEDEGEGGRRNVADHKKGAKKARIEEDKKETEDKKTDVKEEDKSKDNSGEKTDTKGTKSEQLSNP

[9] = molecular target: HDAC3 (Homo sapiens, UniProt O15379); experiment: Fluorogenic isoform-specific HDAC assay, HDAC3; assay type: biochemical
Sequence of HDAC3 (O15379 whole entry, canonical isoform): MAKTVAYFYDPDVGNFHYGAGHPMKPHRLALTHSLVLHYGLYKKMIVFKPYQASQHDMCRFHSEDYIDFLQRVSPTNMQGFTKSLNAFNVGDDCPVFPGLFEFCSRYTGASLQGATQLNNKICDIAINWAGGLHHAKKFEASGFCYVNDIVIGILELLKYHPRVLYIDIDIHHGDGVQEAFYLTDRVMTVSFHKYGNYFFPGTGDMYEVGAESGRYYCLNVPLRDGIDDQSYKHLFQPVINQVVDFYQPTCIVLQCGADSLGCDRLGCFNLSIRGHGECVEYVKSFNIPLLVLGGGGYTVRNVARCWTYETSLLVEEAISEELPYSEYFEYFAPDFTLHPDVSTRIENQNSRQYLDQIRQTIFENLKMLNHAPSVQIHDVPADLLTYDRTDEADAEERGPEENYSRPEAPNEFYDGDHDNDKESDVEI
Sequence of HDAC3 (Q9Y618 395-489 partner limits assumed): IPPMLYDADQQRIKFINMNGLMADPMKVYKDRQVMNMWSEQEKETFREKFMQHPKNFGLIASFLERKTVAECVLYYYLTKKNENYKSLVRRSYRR

[10] = molecular target: HDAC4 (Homo sapiens, UniProt P56524); experiment: Fluorogenic isoform-specific HDAC assay, HDAC4; assay type: biochemical
Sequence of HDAC4 (P56524 whole entry, canonical isoform): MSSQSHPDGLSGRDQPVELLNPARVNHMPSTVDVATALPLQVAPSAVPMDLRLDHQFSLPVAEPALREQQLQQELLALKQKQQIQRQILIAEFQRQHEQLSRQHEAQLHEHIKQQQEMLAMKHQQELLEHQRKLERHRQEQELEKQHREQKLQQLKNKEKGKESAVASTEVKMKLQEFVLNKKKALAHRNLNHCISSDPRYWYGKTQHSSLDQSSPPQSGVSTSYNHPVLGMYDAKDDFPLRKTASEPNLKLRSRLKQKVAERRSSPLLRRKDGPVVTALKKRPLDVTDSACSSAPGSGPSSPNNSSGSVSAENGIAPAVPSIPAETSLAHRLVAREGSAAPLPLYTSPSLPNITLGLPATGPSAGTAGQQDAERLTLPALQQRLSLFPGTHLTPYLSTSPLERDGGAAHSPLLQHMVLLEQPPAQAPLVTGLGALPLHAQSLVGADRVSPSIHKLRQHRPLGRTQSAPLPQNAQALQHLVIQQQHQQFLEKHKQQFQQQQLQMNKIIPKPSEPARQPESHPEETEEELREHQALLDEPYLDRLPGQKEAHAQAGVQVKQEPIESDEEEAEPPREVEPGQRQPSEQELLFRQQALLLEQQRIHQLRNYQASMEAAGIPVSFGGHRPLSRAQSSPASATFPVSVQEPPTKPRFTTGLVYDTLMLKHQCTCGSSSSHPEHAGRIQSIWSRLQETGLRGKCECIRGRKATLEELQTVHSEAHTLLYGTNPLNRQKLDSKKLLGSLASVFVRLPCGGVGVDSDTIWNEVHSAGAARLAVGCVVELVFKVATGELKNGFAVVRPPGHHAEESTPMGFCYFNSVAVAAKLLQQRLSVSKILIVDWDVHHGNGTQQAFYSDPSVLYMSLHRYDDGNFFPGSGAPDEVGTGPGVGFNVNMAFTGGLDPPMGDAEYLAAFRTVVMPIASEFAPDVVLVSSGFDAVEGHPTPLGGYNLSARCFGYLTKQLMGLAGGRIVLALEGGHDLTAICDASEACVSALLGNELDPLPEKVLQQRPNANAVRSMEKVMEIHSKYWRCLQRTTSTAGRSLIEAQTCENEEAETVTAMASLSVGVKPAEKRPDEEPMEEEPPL

[11] = molecular target: HDAC5 (Homo sapiens, UniProt Q9UQL6); experiment: Fluorogenic isoform-specific HDAC assay, HDAC5; assay type: biochemical
Sequence of HDAC5 (Q9UQL6 whole entry, canonical isoform): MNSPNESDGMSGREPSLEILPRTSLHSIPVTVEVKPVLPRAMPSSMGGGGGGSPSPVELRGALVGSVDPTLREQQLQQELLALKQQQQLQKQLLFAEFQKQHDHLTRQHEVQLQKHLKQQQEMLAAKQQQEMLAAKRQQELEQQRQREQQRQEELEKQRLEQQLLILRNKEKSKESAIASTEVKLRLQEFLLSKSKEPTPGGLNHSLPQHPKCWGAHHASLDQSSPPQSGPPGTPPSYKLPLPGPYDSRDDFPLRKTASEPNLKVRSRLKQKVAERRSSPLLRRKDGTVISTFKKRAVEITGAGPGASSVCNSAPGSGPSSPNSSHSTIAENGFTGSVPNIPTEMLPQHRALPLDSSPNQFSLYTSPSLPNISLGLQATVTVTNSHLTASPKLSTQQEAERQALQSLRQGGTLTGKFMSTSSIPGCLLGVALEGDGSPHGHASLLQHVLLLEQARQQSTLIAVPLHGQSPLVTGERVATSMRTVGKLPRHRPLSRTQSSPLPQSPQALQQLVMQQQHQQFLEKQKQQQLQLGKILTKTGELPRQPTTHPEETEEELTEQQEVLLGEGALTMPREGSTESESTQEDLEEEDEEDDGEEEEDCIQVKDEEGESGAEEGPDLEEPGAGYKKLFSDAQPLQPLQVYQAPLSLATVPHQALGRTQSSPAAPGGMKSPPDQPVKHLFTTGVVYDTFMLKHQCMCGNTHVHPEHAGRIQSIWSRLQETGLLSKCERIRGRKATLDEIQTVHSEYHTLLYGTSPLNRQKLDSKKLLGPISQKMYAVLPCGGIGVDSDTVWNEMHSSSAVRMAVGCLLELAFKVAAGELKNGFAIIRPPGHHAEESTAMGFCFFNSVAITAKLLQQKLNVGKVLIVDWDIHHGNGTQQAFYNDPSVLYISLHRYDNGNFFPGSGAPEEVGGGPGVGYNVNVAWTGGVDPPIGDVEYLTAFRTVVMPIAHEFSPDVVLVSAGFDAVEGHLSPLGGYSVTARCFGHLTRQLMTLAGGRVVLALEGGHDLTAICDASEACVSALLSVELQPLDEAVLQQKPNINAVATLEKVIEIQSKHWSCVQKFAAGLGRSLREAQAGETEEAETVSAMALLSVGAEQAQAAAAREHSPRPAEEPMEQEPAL

[12] = molecular target: T1, HDAC6 (Homo sapiens, UniProt Q9UBN7); experiment: Fluorogenic isoform-specific HDAC assay, HDAC6; assay type: biochemical
T1 sequence (Q9UBN7 1-1215): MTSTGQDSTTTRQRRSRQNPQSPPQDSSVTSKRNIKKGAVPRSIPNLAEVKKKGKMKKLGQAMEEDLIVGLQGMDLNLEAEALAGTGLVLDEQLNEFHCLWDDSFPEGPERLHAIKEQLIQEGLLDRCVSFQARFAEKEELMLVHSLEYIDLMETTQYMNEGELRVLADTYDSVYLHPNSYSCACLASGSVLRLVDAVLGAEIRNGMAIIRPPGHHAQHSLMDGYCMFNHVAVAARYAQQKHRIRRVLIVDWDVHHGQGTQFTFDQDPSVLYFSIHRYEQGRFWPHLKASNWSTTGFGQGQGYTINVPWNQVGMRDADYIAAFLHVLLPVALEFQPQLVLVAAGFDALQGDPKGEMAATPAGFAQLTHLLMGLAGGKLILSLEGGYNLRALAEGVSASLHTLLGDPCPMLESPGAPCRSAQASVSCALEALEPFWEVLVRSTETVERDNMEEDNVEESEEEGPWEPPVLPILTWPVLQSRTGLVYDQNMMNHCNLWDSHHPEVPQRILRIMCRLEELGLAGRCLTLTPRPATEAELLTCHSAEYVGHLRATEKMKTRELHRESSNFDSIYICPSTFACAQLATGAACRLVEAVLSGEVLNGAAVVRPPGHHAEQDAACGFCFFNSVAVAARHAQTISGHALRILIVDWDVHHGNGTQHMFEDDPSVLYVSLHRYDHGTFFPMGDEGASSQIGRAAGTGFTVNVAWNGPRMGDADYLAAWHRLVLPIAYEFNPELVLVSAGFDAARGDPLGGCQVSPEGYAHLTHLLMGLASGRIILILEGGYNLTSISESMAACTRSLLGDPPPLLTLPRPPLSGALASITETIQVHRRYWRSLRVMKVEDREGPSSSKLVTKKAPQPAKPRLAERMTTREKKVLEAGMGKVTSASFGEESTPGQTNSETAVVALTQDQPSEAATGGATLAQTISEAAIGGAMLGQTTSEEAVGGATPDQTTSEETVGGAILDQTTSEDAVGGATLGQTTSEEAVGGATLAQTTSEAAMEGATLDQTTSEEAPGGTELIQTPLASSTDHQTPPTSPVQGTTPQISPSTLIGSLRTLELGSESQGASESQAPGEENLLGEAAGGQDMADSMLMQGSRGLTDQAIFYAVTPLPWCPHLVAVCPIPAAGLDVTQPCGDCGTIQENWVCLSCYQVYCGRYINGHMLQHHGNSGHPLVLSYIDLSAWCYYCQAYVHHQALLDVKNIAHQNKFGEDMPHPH

[13] = molecular target: T2, HDAC8 (Homo sapiens, UniProt Q9BY41); experiment: Fluorogenic isoform-specific HDAC assay, HDAC8; assay type: biochemical
T2 sequence (Q9BY41 1-377): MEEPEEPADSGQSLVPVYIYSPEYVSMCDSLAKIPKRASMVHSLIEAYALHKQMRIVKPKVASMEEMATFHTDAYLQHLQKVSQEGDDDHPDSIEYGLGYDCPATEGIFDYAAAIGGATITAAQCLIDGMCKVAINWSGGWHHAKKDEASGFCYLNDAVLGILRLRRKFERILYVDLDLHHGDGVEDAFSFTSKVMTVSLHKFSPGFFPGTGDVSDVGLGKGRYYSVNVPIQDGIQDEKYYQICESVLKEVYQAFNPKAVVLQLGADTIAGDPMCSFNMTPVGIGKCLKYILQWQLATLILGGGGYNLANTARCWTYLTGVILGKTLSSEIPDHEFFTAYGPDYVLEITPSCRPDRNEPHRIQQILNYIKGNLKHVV

[14] = molecular target: HDAC9 (Homo sapiens, UniProt Q9UKV0); experiment: Fluorogenic isoform-specific HDAC assay, HDAC9; assay type: biochemical
Sequence of HDAC9 (Q9UKV0 whole entry, canonical isoform): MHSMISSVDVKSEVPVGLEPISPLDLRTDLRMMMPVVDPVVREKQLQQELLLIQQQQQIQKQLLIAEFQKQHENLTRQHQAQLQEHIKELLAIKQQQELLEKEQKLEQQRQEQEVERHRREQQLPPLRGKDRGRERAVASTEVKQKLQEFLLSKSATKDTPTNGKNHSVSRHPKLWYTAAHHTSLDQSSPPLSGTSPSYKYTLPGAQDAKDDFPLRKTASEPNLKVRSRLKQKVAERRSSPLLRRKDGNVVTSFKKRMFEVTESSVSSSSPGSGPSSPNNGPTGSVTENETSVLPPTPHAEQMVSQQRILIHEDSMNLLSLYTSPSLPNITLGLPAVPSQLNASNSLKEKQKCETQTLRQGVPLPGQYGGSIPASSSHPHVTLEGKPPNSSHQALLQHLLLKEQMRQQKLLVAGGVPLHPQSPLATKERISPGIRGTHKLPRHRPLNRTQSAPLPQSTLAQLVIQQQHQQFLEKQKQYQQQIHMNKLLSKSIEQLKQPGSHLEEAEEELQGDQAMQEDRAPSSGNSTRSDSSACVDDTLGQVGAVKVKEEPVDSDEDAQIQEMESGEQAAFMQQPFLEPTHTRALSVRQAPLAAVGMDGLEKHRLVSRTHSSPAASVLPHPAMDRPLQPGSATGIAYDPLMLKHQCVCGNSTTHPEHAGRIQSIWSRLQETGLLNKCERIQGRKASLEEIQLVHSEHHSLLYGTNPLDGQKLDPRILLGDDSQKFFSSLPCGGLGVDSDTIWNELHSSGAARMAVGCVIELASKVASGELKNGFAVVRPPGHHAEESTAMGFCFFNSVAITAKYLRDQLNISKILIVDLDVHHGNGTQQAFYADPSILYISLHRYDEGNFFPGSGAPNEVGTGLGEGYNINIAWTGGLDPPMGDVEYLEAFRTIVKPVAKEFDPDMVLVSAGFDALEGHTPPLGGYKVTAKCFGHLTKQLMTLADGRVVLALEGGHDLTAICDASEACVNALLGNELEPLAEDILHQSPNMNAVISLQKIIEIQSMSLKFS

[15] = tested on: class I and II HDAC enzymes; experiment: Panel of fluorogenic assays against ten class I and II HDAC isoforms; assay type: biochemical, human
[16] = tested on: HDAC I/II; experiment: HDAC-Glo I/II assay in HEK293 cells; assay type: cell-based, human; details: read-out: average IC50, HDAC-Glo I/II activity; HEK293, assay optimization, Figure 1A
[17] = tested on: HDAC I/II; experiment: HDAC-Glo I/II assay in HepG2 cells; assay type: cell-based, human; details: read-out: average IC50, HDAC-Glo I/II activity; HepG2, assay optimization, Figure 1A
[18] = tested on: HDAC I/II; experiment: HDAC-Glo I/II assay in SU-DHL-6 cells; assay type: cell-based, human; details: read-out: average IC50, HDAC-Glo I/II activity; SU-DHL-6, assay optimization, Figure 1A
[19] = molecular target: T3, HDAC7 (Homo sapiens, UniProt Q8WUI4); experiment: Fluorogenic isoform-specific HDAC assay, HDAC7; assay type: biochemical; details: Figure 4D, Suppl. Table S4
T3 sequence (Q8WUI4 1-952): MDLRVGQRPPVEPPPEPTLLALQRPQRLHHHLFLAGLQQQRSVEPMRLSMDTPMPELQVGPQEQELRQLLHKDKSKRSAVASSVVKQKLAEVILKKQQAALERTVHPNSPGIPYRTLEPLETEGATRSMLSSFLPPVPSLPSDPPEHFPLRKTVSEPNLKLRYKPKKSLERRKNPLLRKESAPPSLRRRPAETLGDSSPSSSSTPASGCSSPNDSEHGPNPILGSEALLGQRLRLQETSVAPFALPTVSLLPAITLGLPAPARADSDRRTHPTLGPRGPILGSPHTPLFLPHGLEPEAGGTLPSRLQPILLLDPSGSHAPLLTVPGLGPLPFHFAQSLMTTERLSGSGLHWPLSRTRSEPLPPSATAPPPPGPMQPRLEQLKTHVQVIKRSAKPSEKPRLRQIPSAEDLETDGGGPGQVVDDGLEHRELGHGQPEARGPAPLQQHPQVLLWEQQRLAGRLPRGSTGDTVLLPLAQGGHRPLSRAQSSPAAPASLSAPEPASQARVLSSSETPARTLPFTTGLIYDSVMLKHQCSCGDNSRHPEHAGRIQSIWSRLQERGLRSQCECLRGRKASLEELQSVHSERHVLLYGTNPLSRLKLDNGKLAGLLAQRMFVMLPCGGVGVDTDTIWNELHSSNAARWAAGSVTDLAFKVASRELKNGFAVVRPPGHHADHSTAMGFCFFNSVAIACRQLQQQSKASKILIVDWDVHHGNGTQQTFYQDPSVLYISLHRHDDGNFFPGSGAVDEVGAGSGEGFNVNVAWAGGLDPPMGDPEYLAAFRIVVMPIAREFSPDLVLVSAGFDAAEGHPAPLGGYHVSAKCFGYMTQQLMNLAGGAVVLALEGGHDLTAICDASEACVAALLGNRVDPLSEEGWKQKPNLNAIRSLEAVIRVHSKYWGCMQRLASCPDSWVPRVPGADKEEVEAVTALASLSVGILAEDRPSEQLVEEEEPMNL

[20] = read-out: HDAC-Glo: IC50, HCT116, cherry-pick confirmation, 11 concentrations, 1 hour
[21] = read-out: HDAC-Glo: IC50, hNSC, cherry-pick confirmation, 11 concentrations, 1 hour
[22] = read-out: IC50, HDAC-Glo I/II HCT116 assay, powder confirmation

| Compound | HDAC-Glo: Efficacy, HCT116 ([1]; cherry-pick confirmation) | IC50 [1, 20] [µM] | HDAC-Glo: Efficacy, hNSC ([2]; cherry-pick confirmation) | IC50 [2, 21] [µM] | viability at 1 h [3] [%] | IC50 [4] [µM] | viability at 1 h [5] [%] | IC50 [6] [µM] | Efficacy, HDAC-Glo I/II HCT116 assay ([1]; powder confirmation) [%] | IC50 [1, 22] [µM] | Viability: IC50, HCT116 [6] | other results |
| --- | --- | --- | --- | --- | --- | --- | --- | --- | --- | --- | --- | --- |
| O=C(O)c1cccc(-c2noc(-c3ccccc3F)n2)c1 [Ataluren (PTC-124), Ataluren] | 111 ± 4% | 0.83 | 109 ± 3% | 0.8 ± 0.05 | 86 ± 60.2 | 14.3 ± 0.93 | 103 | 14.4 ± 2.45 | – | – | – | – |
| N=C(N)c1ccc2cc(OC(=O)c3ccc(N=C(N)N)cc3)ccc2c1 [Nafamostat] | 116 ± 3% | 1.11 ± 0.25 | 108 ± 1% | 0.36 ± 0.14 | – | – | – | – | 99 ± 0 | 0.12 ± 0.03 | Inactive | inhibition of HDAC-Glo I/II luminescence signals ([2]; cherry-pick confirmation): completely inhibited; Viability: IC50, hNSC [4]: Inactive; IC50 [7]: 4.67 µM; IC50 [8]: 4.69 µM; IC50 [9]: 4.04 µM; IC50 [10]: 1.49 µM; IC50 [11]: 1.33 µM; IC50 [12]: 4.39 µM; IC50 [13]: 1.52 µM; IC50 [14]: 1.55 µM; isoform selectivity ([15]; red-shifted versions of fluorogenic assays, Figure 4A, 4B): more selective in inhibiting HDAC4, HDAC5, and HDAC8 than other HDAC isoforms |
| O=S(=O)(O)c1ccc2[nH]c(-c3ccccc3)nc2c1 [Ensulizole] | 116 ± 5% | 6.13 ± 3.06 | 111 ± 1% | 1.94 ± 0.97 | 58 | 16 ± 1.04 | 70 | 13.4 ± 2.8 | 98 ± 0 | 1.66 ± 0.73 | – | inhibition of HDAC3 (in words) ([9]; 20 μM): selectively inhibited; also recorded: selective to HDAC3 |
| CC(/C=C/C(=O)NO)=C\[C@@H](C)C(=O)c1ccc(N(C)C)cc1 [Trichostatin A] | 119 ± 5% | 0.07 ± 0.01 | 114 ± 6% | 0.1 ± 0.02 | – | – | – | – | 99 ± 0 | 0.11 ± 0.01 | Inactive | HDAC I/II inhibitory activity (in words) ([1]; HCT116 and HEK293 cells, validation with epigenetics libraries): greatly inhibited HDAC-Glo I/II activity; IC50 ([1]; read-out: IC50, HDAC-Glo I/II, HCT116 cells, time course, one hour treatment): 0.05 ± 0.03 µM; IC50 ([1]; read-out: average IC50, HDAC-Glo I/II activity, HCT116, assay optimization, Figure 1A): 0.25 µM; IC50 [16]: 0.09 µM; IC50 [17]: 0.05 µM; IC50 ([2]; read-out: average IC50, HDAC-Glo I/II activity, hNSC, assay optimization, Figure 1A): 0.44 µM; IC50 [18]: 0.1 µM; Viability: IC50, hNSC [4]: Inactive; inhibition against all class I and II HDAC enzymes ([15]; 20 μM): over 80%; inhibition of HDAC isoforms (in words) ([15]; 20 μM, Figure 3): inhibited activities of all isoforms |
| CNC(=O)c1ccccc1Sc1ccc2c(/C=C/c3ccccn3)n[nH]c2c1 [Axitinib] | 2.97 ± 0.34 (105 ± 3) % | – | 6.65 ± 0.76 (106 ± 4) % | – | – | – | – | – | – | – | – | inhibition of HDAC6 (in words) ([12]; 20 μM): inhibited HDADC6 the most |
| Oc1cc(O)cc(/C=C/c2ccc(O)c(O)c2)c1 [Piceatannol] | 105 ± 7% | 5.9 | 108 ± 4% | 4.18 | 25 | 19.5 ± 2.49 | – | – | 60 ± 4 | 10.3 ± 1.06 | Inactive | inhibition of HDAC-Glo I/II luminescence signals ([2]; cherry-pick confirmation): completely inhibited; inhibition of HDAC activity, HDAC1 ([7]; Figure 4C, Suppl. Table S4): over 30%; IC50 [8]: 5.04 µM; IC50 [9]: 23.3 µM; IC50 [11]: 0.89 µM; inhibition of HDAC activity, HDAC5 ([11]; Figure 4D, Suppl. Table S4): over 30%; IC50 [12]: 8.22 µM; inhibition of HDAC activity, HDAC7 [19]: over 30%; IC50 [13]: 3.42 µM; IC50 [14]: 9.95 µM; inhibition of HDAC activity, HDAC9 ([14]; Figure 4D, Suppl. Table S4): over 30% |
| CC(=O)Oc1ccccc1C(=O)Nc1ncc([N+](=O)[O-])s1 [Nitazoxanide] | 116 ± 1% | 1.6 ± 0.1 | 104 ± 1% | 1.05 ± 0.12 | 40 | 12.4 ± 4.65 | 62 | 23.6 ± 12 | 99 ± 0 | 1.35 ± 0.14 | – | – |
